Laboratory results published in US20090036388A1, “Compounds” (priority 2007, published 2009).
Values after ≈ are worked out from the molar mass of the structure shown.

Key:
[1] = tested on: Plasmodium falciparum strain W2; assay: [3H] hypoxanthine incorporation IC50 assay, P. falciparum W2; type: cell-based; details: P. falciparum W2, 48 hours incubation
Description: (§1) Plasmodium falciparum strains 3D7A and W2.
(§2) The culture medium comprised RPMI 1640 with 25 mM HEPES, sodium bicarbonate and glutamine (GIBCO™ cat. ref.: 52400), supplemented with 10% of pooled human sera AB (Bioreclamation HMSRM-AB)) and HT supplement (0.15 mM hypoxanthine and 24 μM thymidine), (GIBCO™ cat. ref.: 41065). Human sera were decomplemented 30 min. at 56° C., aliquoted and stored frozen at −20° C. until use in this culture medium.
(§3) Red blood cells AB—stock suspensions were prepared from whole blood bags coming from incomplete blood donation, provided by the Spanish Red Cross (<25 days after sampling). This “whole blood” was aliquoted and stored at 4° C.
(§4) To prepare red blood cells for the assay, the whole blood was centrifuged and washed 3 times with RPMI without serum. The upper phase, containing white blood cells was removed. The washed red blood cells were kept as a 50% suspension in complete medium. The prepared cells were stored at 4° C. and were employed in the assay at any time up to 4 days after preparation.
(§5) Test compounds were dissolved at 2 mg/ml in 100% DMSO on the day of the assay. If necessary, complete dissolution was achieved by gentle heating (the mixture was heated at a temperature <37° C.) and sonication (sonication bath).
(§6) For IC50 determinations, 10 serial 2-fold dilutions were prepared in complete medium in the presence of a constant amount of DMSO. Any obvious signs of insolubility of the stock solutions in 100% DMSO or precipitation when these solutions were diluted in assay media, were recorded.
(§7) Plasmodium falciparum strains were maintained in complete medium at an hematocrit of 5% in continuous culture using a method adapted from Trager and Jensen (1, 2).
(§8) The parasitemia was calculated by counting the percentage of parasitized erythrocytes by optical microscopy. Thin films of blood were made every day from each culture flask, fixed with methanol and stained for 10 min. in Giemsa (Merck, cat. ref.: 1.09204) at 10% in buffered water pH 7.2. The glass slides were observed and counted with an optical microscope (Nikon, Eclipse E200) equipped with a 100× immersion oil objective.
(§9) The culture was maintained at an hematocrit of 5%, with a daily change of medium and was diluted when parasitemia had reached about 5%.
(§10) [^3H] Hypoxanthine incorporation assay was conducted using a method adapted from Desjardins et al. (3). The assays were performed in 96 wells flat bottom microplates.
(§11) 1. Serial dilutions of the test compounds (50 μl of a 5× solution/well) were deposited in duplicate. Compounds of this invention (Table 1) were tested in this assay. Chloroquine and Azithromycin were used as control compounds for each assay.
(§12) 3. [^3H]-Hypoxanthine (Amersham Biosciences, cat. ref.: TRK74) was added extemporaneously to the inoculum suspension at a concentration of 1 μCi/ml (equating to […]). 200 μl of the resulting suspension was distributed into each well (other than the control well H12 described below) leading to a final volume of 250 μl per well, at 1% of hematocrit and 0.4% of parasitemia/well.
(§13) 4. In each plate, 2 columns were reserved for control wells: • Column 11: Positive control wells: PRBCs with 0.2% DMSO—(i) to determine DMSO solvent effect on parasite growth (at a final concentration of 0.2%) and (ii) to compare with cultures treated with test compounds. • Column 12 (comprising wells A12-H12): • A12-D12—Background value wells: Uninfected RBCs—blank control to obtain the background reading from RBCs without parasites.
(§14) E12-G12—Solvent effect wells: PRBCs without DMSO—to determine DMSO solvent effect on PRBCs by comparing these wells with column 11 wells.
(§15) H12—Non-radioactive well: PRBCs with cold hypoxanthine—(i) to carry out a thin blood film to determine parasitemia value after incubation by microscopy and (ii) to ensure that the parasites have grown properly during the assay. […]

[2] = tested on: Plasmodium falciparum strain 3D7A; assay: [3H] hypoxanthine incorporation IC50 assay, P. falciparum 3D7A; type: cell-based; details: 48 hours incubation; for IC50: Plasmodium falciparum
Description: as §1, §2, §3, §4, §5, §6, §7, §8, §9, §10, §11, §12, §13, §14, §15

Plasmodium falciparum = details: non-immune patients, as compared to controls; cited from earlier work
Plasmodium vivax = details: non-immune patients, as compared to controls; cited from earlier work
Plasmodium cynomolgi = details: rhesus monkey; cited from earlier work
Plasmodium berghei = details: cited from earlier work
[3] = tested on: Plasmodium yoelii nigeriensis; details: cited from earlier work

| Compound | IC50 [1] [µg/mL] | IC50 [2] [µg/mL] | further results |
| --- | --- | --- | --- |
| CC[C@H]1OC(=O)[C@H](C)[C@@H](O)[C@H](C)[C@@H](O[C@@H]2O[C@H](C)C[C@H](N(C)C)[C@H]2OCCCNc2ccnc3cc(Cl)ccc23)[C@](C)(O)C[C@@H](C)CN(C)[C@H](C)[C@@H](OC(C)=O)[C@]1(C)O [Example 4, 11-O-Acetyl-2′-O-{3-[(7-Chloro-4-quinolinyl)amino]propyl}-3-O-decladinosyl-9-deoxo-9a-methyl-9a-aza-9a-homoerythromycin A] | ≤ 0.1 | ≤ 0.1 | – |
| CC[C@H]1OC(=O)[C@H](C)[C@@H](O[C@H]2C[C@@](C)(OC)[C@@H](O)[C@H](C)O2)[C@H](C)[C@@H](O[C@@H]2O[C@H](C)C[C@H](N(C)C)[C@H]2OCCC(=O)NCCNc2ccnc3cc(Cl)ccc23)[C@](C)(O)C[C@@H](C)CN(C)[C@H](C)[C@@H](O)[C@]1(C)O [Example 11, 2′-O-[3-({2-[(7-chloro-4-quinolinyl)amino]ethyl}amino)-3-oxopropyl]9-deoxo-9a-methyl—9a-aza-9a-homoerythromycin A] | ≤ 0.1 | ≤ 0.1 | – |
| CC[C@H]1OC(=O)[C@H](C)[C@@H](O[C@H]2C[C@@](C)(OC)[C@@H](O)[C@H](C)O2)[C@H](C)[C@@H](O[C@@H]2O[C@H](C)C[C@H](N(C)C)[C@H]2OCCCNc2ccnc3ccccc23)[C@](C)(O)C[C@@H](C)CN(C)[C@H](C)[C@@H](O)[C@]1(C)O [Example 6, 2′-O-{3-[(4-quinolinyl)amino]propyl}-9-deoxo-9a-methyl-9a-aza-9a-homoerythromycin A] | ≤ 0.1 | ≤ 0.1 | – |
| CC[C@H]1OC(=O)[C@H](C)[C@@H](O)[C@H](C)[C@@H](O[C@@H]2O[C@H](C)C[C@H](N(C)C)[C@H]2OCCCNc2ccnc3cc(Cl)ccc23)[C@](C)(O)C[C@@H](C)CN(C)[C@H](C)[C@@H](O)[C@]1(C)O [Example 5, 2′-O-{3-[(7-Chloro-4-quinolinyl)amino]propyl}-3-O-decladinosyl-9-deoxo-9a-methyl-9a-aza-9a-homoerythromycin A] | ≤ 0.1 | ≤ 0.1 | – |
| CC[C@H]1OC(=O)[C@H](C)[C@@H](O[C@H]2C[C@@](C)(OC)[C@@H](O)[C@H](C)O2)[C@H](C)[C@@H](O[C@@H]2O[C@H](C)C[C@H](N(C)C)[C@H]2OCCCNc2ccnc3cc(Cl)ccc23)[C@](C)(O)C[C@@H](C)CN(C)[C@H](C)[C@@H](O)[C@]1(C)O [Example 3, 2′-O-{3-[(7-Chloro-4-quinolinyl)amino]propyl}-9-deoxo-9a-methyl-9a-aza-9a-homoerythromycin A] | ≤ 0.1 | ≤ 0.1 | – |
| CC[C@H]1OC(=O)[C@H](C)[C@@H](O[C@H]2C[C@@](C)(OC)[C@@H](O)[C@H](C)O2)[C@H](C)[C@@H](O[C@@H]2O[C@H](C)C[C@H](N(C)C)[C@H]2O)[C@](C)(O)C[C@@H](C)CN(C)[C@H](C)[C@@H](O)[C@]1(C)O [azithromycin] | 2.5 to 3 (≈ 3.34 to 4.01 µM) | – | IC50 3D7A [2]: H, >H; prophylactic efficacy for Plasmodium falciparum (Plasmodium falciparum): 71.6%; prophylactic efficacy for Plasmodium vivax (Plasmodium vivax): 98.9%; efficacy in monkey model (Plasmodium cynomolgi): active |
| midecamycinin | – | – | activity in mouse model (Plasmodium berghei): active; activity in mouse model [3]: active; efficacy in monkey model (Plasmodium cynomolgi): no efficacy |
| CC[C@H]1OC(=O)[C@H](C)[C@@H](O)[C@H](C)[C@@H](O[C@@H]2O[C@H](C)C[C@H](N(C)C)[C@H]2OCCCNC(=O)CCCNc2ccnc3cc(Cl)ccc23)[C@](C)(O)C[C@@H](C)CN(C)[C@H](C)[C@@H](O)[C@]1(C)O [Example 2, 2′-O-[3-({4-[(7-chloro-4-quinolinyl)amino]butanoyl}amino)propyl]-3-O-decladinosyl-9-deoxo-9a-methyl-9a-aza-9a-homoerythromycin A] | 0.1 to 0.2 (≈ 0.112 to 0.224 µM) | 0.1 to 0.2 (≈ 0.112 to 0.224 µM) | – |
| CC[C@H]1OC(=O)[C@H](C)[C@@H](O[C@H]2C[C@@](C)(OC)[C@@H](O)[C@H](C)O2)[C@H](C)[C@@H](O[C@@H]2O[C@H](C)C[C@H](N(C)C)[C@H]2OCCCNC(=O)CNc2ccnc3cc(Cl)ccc23)[C@](C)(O)C[C@@H](C)CN(C)[C@H](C)[C@@H](O)[C@]1(C)O [Example 7, 2′-O-[3-({2-[(7-chloro-4-quinolinyl)amino]ethanoyl}amino)propyl]-9-deoxo-9a-methyl-9a-aza-9a-homoerythromycin A] | ≤ 0.1 | ≤ 0.1 | – |
| CC[C@H]1OC(=O)[C@H](C)[C@@H](O)[C@H](C)[C@@H](O[C@@H]2O[C@H](C)C[C@H](N(C)C)[C@H]2OCCCNC(=O)CNc2ccnc3cc(Cl)ccc23)[C@](C)(O)C[C@@H](C)CN(C)[C@H](C)[C@@H](O)[C@]1(C)O [Example 8, 2′-O-[3-({2-[(7-chloro-4-quinolinyl)amino]ethanoyl}amino)propyl]-3-O-decladinosyl-9-deoxo-9a-methyl-9a-aza-9a-homoerythromycin A] | 0.1 to 0.2 (≈ 0.115 to 0.231 µM) | ≤ 0.1 | – |
| CC[C@H]1OC(=O)[C@H](C)[C@@H](O[C@H]2C[C@@](C)(OC)[C@@H](O)[C@H](C)O2)[C@H](C)[C@@H](O[C@@H]2O[C@H](C)C[C@H](N(C)C)[C@H]2OCCCNC(=O)CCCNc2ccnc3cc(Cl)ccc23)[C@](C)(O)C[C@@H](C)CN(C)[C@H](C)[C@@H](O)[C@]1(C)O [Example 1, 2′-O-[3-({4-[(7-chloro-4-quinolinyl)amino]butanoyl}amino)propyl]-9-deoxo-9a-methyl-9a-aza-9a-homoerythromycin A] | ≤ 0.1 | ≤ 0.1 | – |
| CC[C@H]1OC(=O)[C@H](C)[C@@H](O)[C@H](C)[C@@H](O[C@@H]2O[C@H](C)C[C@H](N(C)C)[C@H]2OCCCNC(=O)CNc2ccnc3ccccc23)[C@](C)(O)C[C@@H](C)CN(C)[C@H](C)[C@@H](O)[C@]1(C)O [Example 10, 2′-O-[3-({2-[(4-quinolinyl)amino]ethanoyl}amino)propyl]-3-O-decladinosyl-9-deoxo-9a-methyl-9a-aza-9a-homoerythromycin A] | 0.2 to 1 (≈ 0.24 to 1.2 µM) | 1 to 2.5 (≈ 1.2 to 3 µM) | – |
| CC[C@H]1OC(=O)[C@H](C)[C@@H](O[C@H]2C[C@@](C)(OC)[C@@H](O)[C@H](C)O2)[C@H](C)[C@@H](O[C@@H]2O[C@H](C)C[C@H](N(C)C)[C@H]2OCCCNC(=O)CCCNc2ccnc3ccccc23)[C@](C)(O)C[C@@H](C)CN(C)[C@H](C)[C@@H](O)[C@]1(C)O [Example 12, 2′-O-[3-({4-[(4-quinolinyl)amino]butanoyl}amino)propyl]-9-deoxo-9a-methyl-9a-aza-9a-homoerythromycin A] | 0.1 to 0.2 (≈ 0.0982 to 0.196 µM) | 0.2 to 1 (≈ 0.196 to 0.982 µM) | – |
| CC[C@H]1OC(=O)[C@H](C)[C@@H](O[C@H]2C[C@@](C)(OC)[C@@H](O)[C@H](C)O2)[C@H](C)[C@@H](O[C@@H]2O[C@H](C)C[C@H](N(C)C)[C@H]2OCCCNC(=O)CNc2ccnc3ccccc23)[C@](C)(O)C[C@@H](C)CN(C)[C@H](C)[C@@H](O)[C@]1(C)O [Example 9, 2′-O-[3-({2-[(4-quinolinyl)amino]ethanoyl}amino)propyl]-9-deoxo-9a-methyl-9a-aza-9a-homoerythromycin A] | ≤ 0.1 | 0.1 to 0.2 (≈ 0.101 to 0.202 µM) | – |
